Test results from patent US20130116263A1, “PAK INHIBITORS FOR THE TREATMENT OF CELL PROLIFERATIVE DISORDERS” (AFRAXIS, INC., priority 2011, published 2013).
pIC50: −log10 of the molar value.

Tests used:
Assay type in all cases: biochemical
PAK4 = PAK4 (Homo sapiens, UniProt O96013); assay: In vitro PAK inhibition assay (Z'-LYTE, SelectScreen), PAK4
Procedure: (§1) Compounds are screened in 1% DMSO (final) in the well. For 10 point titrations, 3-fold serial dilutions are conducted. All Peptide/Kinase Mixtures are diluted to a 2× working concentration in the appropriate Kinase Buffer
The 2×PAK-4/Ser/Thr 20 mixture is prepared in 50 mM HEPES pH 7.5, 0.01% BRIJ-35, 10 mM MgCl2, 1 mM EGTA. The final 10 μL Kinase Reaction consists of 0.1-0.75 ng PAK-4 and 2 μM Ser/Thr 20 in 50 mM HEPES pH 7.5, 0.01% BRIJ-35, 10 mM MgCl2, 1 mM EGTA. After the 1 hour Kinase Reaction incubation, 5 μL of a 1:256 dilution of Development Reagent A is added.
(§2) 1. Add the following solutions to a well in a 384-well plate: • 2.5 μL of 4× Test Compound OR (100 nL 100× Test Compound plus 2.4 μL kinase buffer) • 5 μL of 2× Peptide/Kinase (PAK) Mixture • 2.5 μL of 4×ATP Solution
(§3) 3. Incubate the PAK Kinase Reaction at room temperature for 60-minutes
(§4) 4. Add 5 μL of Development Reagent Solution to each well
(§5) 6. Incubate the Development Reaction for 60-minutes
(§6) 7. Determine the fluorescence using a fluorescence plate reader
SelectScreen® Kinase Profiling Service uses XLfit from IDBS. The dose response curve is curve fit to model number 205 (sigmoidal dose-response model).
The table below provides specifications and data around each kinase. The representative IC50 value with a known inhibitor for each kinase was determined at the ATP bin nearest to the ATP Km app.

PAK2 (PAK65) = PAK2 (PAK65) (Homo sapiens, UniProt Q13177); assay: In vitro PAK inhibition assay (Z'-LYTE, SelectScreen), PAK2; conditions: read-out: PAK2 IC50
Sequence of PAK2 (PAK65) (Q13177 whole entry): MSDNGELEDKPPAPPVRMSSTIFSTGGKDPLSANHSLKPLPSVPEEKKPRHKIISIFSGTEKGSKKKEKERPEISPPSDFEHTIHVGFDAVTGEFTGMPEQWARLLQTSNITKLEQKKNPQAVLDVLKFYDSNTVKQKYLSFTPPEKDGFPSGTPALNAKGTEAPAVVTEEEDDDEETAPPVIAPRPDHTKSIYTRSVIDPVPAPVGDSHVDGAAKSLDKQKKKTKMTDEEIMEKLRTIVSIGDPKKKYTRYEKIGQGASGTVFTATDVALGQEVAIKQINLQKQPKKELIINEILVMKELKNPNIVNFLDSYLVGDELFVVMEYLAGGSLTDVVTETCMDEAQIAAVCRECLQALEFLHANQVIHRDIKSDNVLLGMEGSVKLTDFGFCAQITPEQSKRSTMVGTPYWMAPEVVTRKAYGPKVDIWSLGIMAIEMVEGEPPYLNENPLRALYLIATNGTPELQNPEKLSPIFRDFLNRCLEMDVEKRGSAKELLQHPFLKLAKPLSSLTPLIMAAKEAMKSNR
Procedure: as §1
The 2×PAK2 (PAK65)/Ser/Thr 20 mixture is prepared in 50 mM HEPES pH 7.5, 0.01% BRIJ-35, 10 mM MgCl2, 1 mM EGTA. The final 10 μL Kinase Reaction consists of 0.29-6 ng PAK2 (PAK65) and 2 μM Ser/Thr 20 in 50 mM HEPES pH 7.5, 0.01% BRIJ-35, 10 mM MgCl2, 1 mM EGTA.
as §2, §3, §4, §5, §6
(§7) SelectScreen® Kinase Profiling Service uses XLfit from IDBS.
(§8) The representative IC50 value with a known inhibitor for each kinase was determined at the ATP bin nearest to the ATP Km app.

PAK1 = PAK1 (Homo sapiens, UniProt Q13153); assay: In vitro PAK inhibition assay (Z'-LYTE, SelectScreen), PAK1; conditions: read-out: PAK1 IC50
Sequence of PAK1 (Q13153 whole entry): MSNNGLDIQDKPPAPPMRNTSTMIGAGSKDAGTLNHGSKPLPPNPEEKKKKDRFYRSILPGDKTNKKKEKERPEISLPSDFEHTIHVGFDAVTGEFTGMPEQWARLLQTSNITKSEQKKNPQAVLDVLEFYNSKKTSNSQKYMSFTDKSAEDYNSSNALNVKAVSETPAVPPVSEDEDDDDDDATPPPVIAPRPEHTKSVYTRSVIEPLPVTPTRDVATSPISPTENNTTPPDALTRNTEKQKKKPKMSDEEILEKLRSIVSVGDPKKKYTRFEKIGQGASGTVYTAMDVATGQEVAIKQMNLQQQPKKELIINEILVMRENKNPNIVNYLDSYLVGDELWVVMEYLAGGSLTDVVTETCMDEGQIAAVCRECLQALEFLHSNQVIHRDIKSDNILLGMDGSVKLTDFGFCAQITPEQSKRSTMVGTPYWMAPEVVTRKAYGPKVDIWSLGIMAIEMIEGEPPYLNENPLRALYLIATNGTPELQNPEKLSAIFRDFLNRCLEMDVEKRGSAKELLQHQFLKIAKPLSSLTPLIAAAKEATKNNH
Procedure: as §1
The 2×PAK1/Ser/Thr 19 mixture is prepared in 50 mM HEPES pH 7.5, 0.01% BRIJ-35, 10 mM MgCl2, 1 mM EGTA.
as §2, §3, §4, §5, §6, §7, §8

PAK3 = PAK3 (Homo sapiens, UniProt O75914); assay: In vitro PAK inhibition assay (Z'-LYTE, SelectScreen), PAK3; conditions: read-out: PAK3 IC50
Sequence of PAK3 (O75914 1-544 isoform O75914-2): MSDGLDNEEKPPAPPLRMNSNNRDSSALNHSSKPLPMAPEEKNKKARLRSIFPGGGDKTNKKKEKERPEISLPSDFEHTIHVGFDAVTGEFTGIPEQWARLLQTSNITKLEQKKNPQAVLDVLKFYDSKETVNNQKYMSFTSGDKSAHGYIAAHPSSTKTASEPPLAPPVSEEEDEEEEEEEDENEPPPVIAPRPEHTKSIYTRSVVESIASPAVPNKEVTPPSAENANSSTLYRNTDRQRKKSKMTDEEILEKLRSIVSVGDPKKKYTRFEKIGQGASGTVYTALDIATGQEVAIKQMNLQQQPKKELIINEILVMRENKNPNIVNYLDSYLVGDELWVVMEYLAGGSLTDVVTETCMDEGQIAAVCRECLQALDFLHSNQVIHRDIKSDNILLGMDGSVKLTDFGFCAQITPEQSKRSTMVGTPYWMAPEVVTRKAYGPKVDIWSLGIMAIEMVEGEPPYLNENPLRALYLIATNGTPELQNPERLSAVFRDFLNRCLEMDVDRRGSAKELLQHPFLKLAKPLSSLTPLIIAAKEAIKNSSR
Procedure: as §1
The 2×PAK3/Ser/Thr 20 mixture is prepared in 50 mM HEPES pH 7.5, 0.01% BRIJ-35, 10 mM MgCl2, 1 mM EGTA.
as §2, §3, §4, §5, §6, §7, §8

Sequence of PAK4 (O96013 whole entry): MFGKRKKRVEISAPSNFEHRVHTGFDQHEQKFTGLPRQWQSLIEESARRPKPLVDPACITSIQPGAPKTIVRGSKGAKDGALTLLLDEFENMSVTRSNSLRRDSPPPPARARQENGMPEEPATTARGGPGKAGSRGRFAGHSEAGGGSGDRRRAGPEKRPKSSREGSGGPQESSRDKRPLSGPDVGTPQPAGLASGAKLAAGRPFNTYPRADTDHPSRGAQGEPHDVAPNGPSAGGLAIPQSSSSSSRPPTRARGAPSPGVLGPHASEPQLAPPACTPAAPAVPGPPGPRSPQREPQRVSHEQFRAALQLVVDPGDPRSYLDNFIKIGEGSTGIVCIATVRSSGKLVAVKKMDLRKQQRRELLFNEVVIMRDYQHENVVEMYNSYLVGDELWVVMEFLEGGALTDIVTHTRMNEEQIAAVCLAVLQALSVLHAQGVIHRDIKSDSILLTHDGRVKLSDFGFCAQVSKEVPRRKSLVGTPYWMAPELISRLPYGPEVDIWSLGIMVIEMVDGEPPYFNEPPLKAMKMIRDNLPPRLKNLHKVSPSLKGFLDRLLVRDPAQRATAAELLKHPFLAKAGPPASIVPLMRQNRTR

| SMILES | pIC50 (PAK4) | pIC50 (PAK2 (PAK65)) | pIC50 (PAK1) | pIC50 (PAK3) |
| --- | --- | --- | --- | --- |
| Cc1cncc(-c2ccc(-c3cc4cnc(N[C@H]5CCOC5)nc4n([C@H]4CC[C@H](N)CC4)c3=O)c(Cl)c2)n1 [Example 110] | < 5.30 | > 7.30 | > 7.30 | > 7.30 |
| Cc1cncc(-c2ccc(-c3cc4cnc(NC5CC5)nc4n(CCN)c3=O)c(Cl)c2)n1 [Example 111] | < 5.30 | 6.30 to 7.30 | 6.30 to 7.30 | 6.30 to 7.30 |
| Cc1cncc(-c2ccc(-c3cc4cnc(N[C@@H]5CCOC5)nc4n(CCCN)c3=O)c(Cl)c2)n1 [Example 97] | < 5.30 | > 7.30 | 6.30 to 7.30 | 6.30 to 7.30 |
| Cc1cncc(-c2ccc(-c3cc4cnc(NC5CCOCC5)nc4n(Cc4ccccc4C(F)(F)F)c3=O)c(Cl)c2)n1 [Example 20] | < 5.30 | > 7.30 | 6.30 to 7.30 | 6.30 to 7.30 |
| CCn1c(=O)c(-c2ccc(-c3cnc(C)s3)cc2Cl)cc2cnc(N[C@@H]3CCOC3)nc21 [Example 55] | < 5.30 | 6.30 to 7.30 | 6.30 to 7.30 | 5.30 to 6.30 |
| CCn1c(=O)c(-c2ccc(-c3noc(C)n3)cc2Cl)cc2cnc(NCCC3CCNCC3)nc21 [Example 137] | < 5.30 | > 7.30 | 6.30 to 7.30 | 6.30 to 7.30 |
| CCn1c(=O)c(-c2ccc(-c3cccnc3C)cc2Cl)cc2cnc(NC3CCOCC3)nc21 [Example 45] | < 5.30 | 5.30 to 6.30 | 6.30 to 7.30 | 5.30 to 6.30 |
| Cc1cncc(-c2ccc(-c3cc4cnc(NC5CC5)nc4n([C@H]4CC[C@H](N)CC4)c3=O)c(Cl)c2)n1 [Example 112] | 5.30 to 6.30 | > 7.30 | > 7.30 | > 7.30 |
| CCn1c(=O)c(-c2ccc(-c3cnccc3C)cc2Cl)cc2cnc(NC3CCOCC3)nc21 [Example 47] | < 5.30 | 5.30 to 6.30 | 6.30 to 7.30 | 6.30 to 7.30 |
| CCn1c(=O)c(-c2ccc(-c3nccnc3C)cc2Cl)cc2cnc(NC3CCN(C(C)=O)C3)nc21 (stereo not shown) [Example 19] | < 5.30 | 6.30 to 7.30 | 6.30 to 7.30 | 5.30 to 6.30 |
| Cc1nccnc1-c1ccc(-c2cc3cnc(N[C@H]4CCOC4)nc3n(Cc3ccncc3)c2=O)c(Cl)c1 [Example 126] | < 5.30 | 6.30 to 7.30 | 6.30 to 7.30 | 6.30 to 7.30 |

Other lines, results leading:

| pIC50 (PAK4) | pIC50 (PAK2 (PAK65)) | pIC50 (PAK1) | pIC50 (PAK3) | SMILES |
| --- | --- | --- | --- | --- |
| < 5.30 | 6.30 to 7.30 | 6.30 to 7.30 | 5.30 to 6.30 | CCn1c(=O)c(-c2ccc(-c3cncc(C)n3)cc2Cl)cc2cnc(NCCCOCCN)nc21 [Example 133] |
| < 5.30 | > 7.30 | 6.30 to 7.30 | 6.30 to 7.30 | CCn1c(=O)c(-c2ccc(-c3cncc(C)n3)cc2Cl)cc2cnc(N[C@H]3CCOC3)nc21 [Example 27] |
| < 5.30 | 6.30 to 7.30 | 6.30 to 7.30 | 6.30 to 7.30 | CCn1c(=O)c(-c2ccc(-c3cncc(C)n3)cc2Cl)cc2cnc(NCCOCCN(C)C)nc21 [Example 127, 6-(2-chloro-4-(6-methylpyrazin-2-yl)phenyl)-2-((2-(2-(dimethylamino)ethoxy)ethyl)amino)-8-ethylpyrido[2,3-d]pyrimidin-7(8H)-one] |
| < 5.30 | 6.30 to 7.30 | 6.30 to 7.30 | 5.30 to 6.30 | CCN(CC)CCn1c(=O)c(-c2ccc(-c3cncc(C)n3)cc2Cl)cc2cnc(N[C@@H]3CCOC3)nc21 [Example 96] |
| < 5.30 | > 7.30 | 6.30 to 7.30 | 6.30 to 7.30 | CCn1c(=O)c(-c2ccc(-c3cncc(C)n3)cc2Cl)cc2cnc(NC3CCOC3)nc21 (stereo not shown) [Example 29] |
